The source of these data is patent US9346815B2, “5-chloro-2-difluoromethoxyphenyl pyrazolopyrimidine compounds, compositions and methods of use thereof” (Genentech, Inc., priority 2014, dated 2016).

Assay [1] deals with isolated recombinant JAK1 kinase domain (Homo sapiens (Human), UniProt P23458). In words: JAK1 enzyme assay (Caliper LabChip, peptide phosphorylation). The class given is biochemical. The settings on record: isolated recombinant JAK1 kinase domain, 25 μM ATP.
Assay [2] deals with JAK1-dependent STAT6 phosphorylation downstream of IL-13 stimulation in BEAS-2B human bronchial epithelial cells. The experiment in a line: JAK1 pathway assay in BEAS-2B cells (IL-13-pSTAT6, MSD). The settings on record: read-out: IL13-pSTAT6 EC50 (uM)_BEAS-2B. It counts as cell-based. In a few lines:
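TF-1 cells starved of GM-CSF overnight, assayed serum-free; BEAS-2B cells in complete growth medium. Lysate pSTAT6 measured by MSD; EC50 derived.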

Assay [3] concerns the target isolated recombinant JAK2 kinase domain (Homo sapiens (Human), UniProt O60674). The experiment in a line: JAK2 enzyme assay (Caliper LabChip, peptide phosphorylation). The class given is biochemical. The following applies: 25 μM ATP.

Counter-ions that a name gives are not always drawn.

isolated recombinant JAK2 kinase domain, sequence (O60674 849-1124): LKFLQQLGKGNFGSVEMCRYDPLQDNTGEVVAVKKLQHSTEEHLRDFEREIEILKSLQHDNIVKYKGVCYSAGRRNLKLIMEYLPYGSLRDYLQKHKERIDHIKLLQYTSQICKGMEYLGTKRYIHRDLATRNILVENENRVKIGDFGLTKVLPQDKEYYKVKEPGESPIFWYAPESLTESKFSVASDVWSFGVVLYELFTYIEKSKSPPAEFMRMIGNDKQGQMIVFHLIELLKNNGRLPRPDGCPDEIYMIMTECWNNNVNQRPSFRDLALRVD
isolated recombinant JAK1 kinase domain, sequence (P23458 875-1153): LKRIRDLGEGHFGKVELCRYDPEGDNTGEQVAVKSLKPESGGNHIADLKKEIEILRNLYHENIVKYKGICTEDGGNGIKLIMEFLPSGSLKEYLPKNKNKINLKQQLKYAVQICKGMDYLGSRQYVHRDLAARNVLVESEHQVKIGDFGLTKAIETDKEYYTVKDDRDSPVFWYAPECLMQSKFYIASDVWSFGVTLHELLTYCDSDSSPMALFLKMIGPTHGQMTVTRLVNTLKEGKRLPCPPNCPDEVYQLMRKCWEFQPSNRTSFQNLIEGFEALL

The term Ki denotes the equilibrium dissociation constant of an inhibitor or competing ligand from its target. As a reminder, the EC50 is the concentration giving half of the maximal effect. For the molecule `CN(C)CCOC(=O)C1(C)CCN(C(=O)Cn2cc(NC(=O)c3cnn4cccnc34)c(-c3cc(Cl)ccc3OC(F)F)n2)CC1` [Example 340, 2-(dimethylamino)ethyl 1-(2-[3-[5-chloro-2-(difluoromethoxy)phenyl]-4-[pyrazolo[1,5-a]pyrimidine-3-amido]-1H-pyrazol-1-yl]acetyl)-4-methylpiperidine-4-carboxylate], the Ki in assay [1] came out at 0.44 nM; in assay [3], 1.79 nM. Moreover, the concentration giving a half-maximal response (EC50) in assay [2] came to 0.009 µM.

Regarding `O=C(Nc1cn(CC(=O)N2CCC(C(=O)OCC3CCNCC3)CC2)nc1-c1cc(Cl)ccc1OC(F)F)c1cnn2cccnc12` [Example 341, piperidin-4-ylmethyl 1-(2-[3-[5-chloro-2-(difluoromethoxy)phenyl]-4-[pyrazolo[1,5-a]pyrimidine-3-amido]-1H-pyrazol-1-yl]acetyl)piperidine-4-carboxylate], the inhibition constant Ki in assay [1] turned out to be 0.53 nM; in assay [3] it was 2.62 nM. Also, the 50% effective concentration (EC50) in assay [2] came to 0.534 µM.

Regarding `O=C(Nc1cn(CC(=O)N2CCC(C(=O)O)CC2)nc1-c1cc(Cl)ccc1OC(F)F)c1cnn2cccnc12` [Example 342, 1-(2-[3-[5-chloro-2-(difluoromethoxy)phenyl]-4-[pyrazolo[1,5-a]pyrimidine-3-amido]-1H-pyrazol-1-yl]acetyl)piperidine-4-carboxylic acid], the Ki was 0.19 nM in assay [1] and 0.2 nM in assay [3]. For the same molecule, the concentration for a half-maximal effect (EC50) in assay [2] is 1.81 µM.

For `CN(CC1CCC(=O)O1)C1CCN(C(=O)Cn2cc(NC(=O)c3cnn4cccnc34)c(-c3cc(Cl)ccc3OC(F)F)n2)CC1` (stereo not drawn) [Example 344, N-[3-[5-chloro-2-(difluoromethoxy)phenyl]-1-[2-(4-[methyl[(5-oxooxolan-2-yl)methyl]amino]piperidin-1-yl)-2-oxoethyl]-1H-pyrazol-4-yl]pyrazolo[1,5-a]pyrimidine-3-carboxamide], the Ki in assay [1] came to 0.7 nM; in assay [3], 1.9 nM. For the same molecule, the EC50 in assay [2] was 0.0484 µM.

Turning to `COC(=O)CCN(C)C1CCN(C(=O)Cn2cc(NC(=O)c3cnn4cccnc34)c(-c3cc(Cl)ccc3OC(F)F)n2)CC1` [Example 345, methyl 3-[[1-(2-[3-[5-chloro-2-(difluoromethoxy)phenyl]-4-[pyrazolo[1,5-a]pyrimidine-3-amido]-1H-pyrazol-1-yl]acetyl)piperidin-4-yl](methyl)amino]propanoate], the inhibition constant Ki amounted to 0.59 nM in assay [1] and 1.47 nM in assay [3]. Besides, the EC50 in assay [2] worked out at 0.0166 µM.

On to `CSc1ccc(CNCCn2cc(NC(=O)c3cnn4cccnc34)c(-c3cc(Cl)ccc3OC(F)F)n2)cc1` [Example 346, N-[3-[5-chloro-2-(difluoromethoxy)phenyl]-1-[2-([[4-(methylsulfanyl)phenyl]methyl]amino)ethyl]-1H-pyrazol-4-yl]pyrazolo[1,5-a]pyrimidine-3-carboxamide formate], for which the results for the inhibitory constant (Ki) in assay [1] and in assay [3] were 0.37 nM and 0.31 nM, respectively. Also, the 50% effective concentration (EC50) in assay [2] is 0.115 µM.

Take `O=C1CC(N2CCN(C(=O)Cn3cc(NC(=O)c4cnn5cccnc45)c(-c4cc(Cl)ccc4OC(F)F)n3)CC2)CCO1` (stereo not drawn) [Example 347, N-[3-[5-chloro-2-(difluoromethoxy)phenyl]-1-[2-oxo-2-[4-(2-oxooxan-4-yl)piperazin-1-yl]ethyl]-1H-pyrazol-4-yl]pyrazolo[1,5-a]pyrimidine-3-carboxamide]: the inhibition constant (Ki) in assay [1] was found to be 0.39 nM; in assay [3] it was 0.76 nM. Moreover, the EC50 in assay [2] was determined as 0.0307 µM.

With `CN1CCN(C2CCN(C(=O)Cn3cc(NC(=O)c4cnn5cccnc45)c(-c4cc(Cl)ccc4OC(F)F)n3)CC2)CC1` [Example 349, N-[3-[5-chloro-2-(difluoromethoxy)phenyl]-1-[2-[4-(4-methylpiperazin-1-yl)piperidin-1-yl]-2-oxoethyl]-1H-pyrazol-4-yl]pyrazolo[1,5-a]pyrimidine-3-carboxamide], the results for the Ki in assay [1] and in assay [3] were 0.55 nM and 1.65 nM, respectively. Moreover, in assay [2], the EC50 is 0.0155 µM.

On to `CN1CCN(CC2CCN(C(=O)Cn3cc(NC(=O)c4cnn5cccnc45)c(-c4cc(Cl)ccc4OC(F)F)n3)CC2)CC1` [Example 350, N-[3-[5-chloro-2-(difluoromethoxy)phenyl]-1-(2-[4-[(4-methylpiperazin-1-yl)methyl]piperidin-1-yl]-2-oxoethyl)-1H-pyrazol-4-yl]pyrazolo[1,5-a]pyrimidine-3-carboxamide], for which the results for the Ki in assay [1] and in assay [3] were 0.43 nM and 1.42 nM, respectively. Besides, the half-maximal effective concentration (EC50) in assay [2] stood at 0.0094 µM.

Turning to `O=C1C=C(CN2CCN(C(=O)Cn3cc(NC(=O)c4cnn5cccnc45)c(-c4cc(Cl)ccc4OC(F)F)n3)CC2)CO1` [Example 351, N-[3-[5-chloro-2-(difluoromethoxy)phenyl]-1-(2-oxo-2-[4-[(5-oxo-2,5-dihydrofuran-3-yl)methyl]piperazin-1-yl]ethyl)-1H-pyrazol-4-yl]pyrazolo[1,5-a]pyrimidine-3-carboxamide], the inhibition constant Ki in assay [1] was found to be 0.46 nM; in assay [3] it was 0.94 nM. Besides, the EC50 in assay [2] stood at 0.0365 µM.

Take `CN(CC1=CC(=O)OC1)C1CCN(C(=O)Cn2cc(NC(=O)c3cnn4cccnc34)c(-c3cc(Cl)ccc3OC(F)F)n2)CC1` [Example 352, N-[3-[5-chloro-2-(difluoromethoxy)phenyl]-1-[2-(4-[methyl[(5-oxo-2,5-dihydrofuran-3-yl)methyl]amino]piperidin-1-yl)-2-oxoethyl]-1H-pyrazol-4-yl]pyrazolo[1,5-a]pyrimidine-3-carboxamide]: the Ki is 0.33 nM in assay [1] and 0.75 nM in assay [3]. The EC50 in assay [2] was 0.0124 µM.

Turning to `O=C(Nc1cn([C@@H]2CCNC[C@H]2O)nc1-c1cc(Cl)ccc1OC(F)F)c1cnn2cccnc12` [Example 358, N-[3-[5-chloro-2-(difluoromethoxy)phenyl]-1-[(3R,4R)-3-hydroxypiperidin-4-yl]-1H-pyrazol-4-yl]pyrazolo[1,5-a]pyrimidine-3-carboxamide], the inhibition constant Ki in assay [1] was found to be 0.93 nM; in assay [3], 0.66 nM. In addition, in assay [2], the EC50 amounted to 0.0133 µM.

Regarding `O=C(Nc1cn([C@H]2CCNC[C@@H]2O)nc1-c1cc(Cl)ccc1OC(F)F)c1cnn2cccnc12` [Example 359, N-[3-[5-chloro-2-(difluoromethoxy)phenyl]-1-[(3S,4S)-3-hydroxypiperidin-4-yl]-1H-pyrazol-4-yl]pyrazolo[1,5-a]pyrimidine-3-carboxamide], the inhibitory constant (Ki) in assay [1] is 3.85 nM; in assay [3], 2.7 nM. In assay [2], the EC50 worked out at 0.0309 µM.

`O=C(O)CN(CCn1cc(NC(=O)c2cnn3cccnc23)c(-c2cc(Cl)ccc2OC(F)F)n1)Cc1cccnc1` [Example 363, 2-[(2-[3-[5-chloro-2-(difluoromethoxy)phenyl]-4-[pyrazolo[1,5-a]pyrimidine-3-amido]-1H-pyrazol-1-yl]ethyl)(pyridin-3-ylmethyl)amino]acetic acid]: the inhibitory constant (Ki) worked out at 4.15 nM in assay [1] and 1.21 nM in assay [3]. Further, the EC50 in assay [2] is 3.78 µM.

`O=C(O)CNC1CCN(C(=O)Cn2cc(NC(=O)c3cnn4cccnc34)c(-c3cc(Cl)ccc3OC(F)F)n2)CC1` [Example 365, 2-[[1-(2-[3-[5-chloro-2-(difluoromethoxy)phenyl]-4-[pyrazolo[1,5-a]pyrimidine-3-amido]-1H-pyrazol-1-yl]acetyl)piperidin-4-yl]amino]acetic acid]: the Ki in assay [1] turned out to be 0.41 nM; in assay [3] it was 0.55 nM. The concentration giving a half-maximal response (EC50) in assay [2] amounted to 7.56 µM.

Take `CCOC(=O)CN1CCC(n2cc(NC(=O)c3cnn4cccnc34)c(-c3cc(Cl)ccc3OC(F)F)n2)CC1` [Example 366, ethyl 2-(4-[3-[5-chloro-2-(difluoromethoxy)phenyl]-4-[pyrazolo[1,5-a]pyrimidine-3-amido]-1H-pyrazol-1-yl]piperidin-1-yl)acetate]: the figures for the Ki in assay [1] and in assay [3] were 1.07 nM and 0.99 nM, respectively. Besides, in assay [2], the EC50 was 0.312 µM.

Regarding `O=C(Nc1cn(CCNCc2ncco2)nc1-c1cc(Cl)ccc1OC(F)F)c1cnn2cccnc12` [Example 367, N-[3-[5-chloro-2-(difluoromethoxy)phenyl]-1-[2-[(1,3-oxazol-2-ylmethyl)amino]ethyl]-1H-pyrazol-4-yl]pyrazolo[1,5-a]pyrimidine-3-carboxamide], the inhibitory constant (Ki) in assay [1] was 0.83 nM; in assay [3], 0.5 nM. Also, the EC50 in assay [2] is 0.0352 µM.

With `CN[C@@H](C)Cn1cc(NC(=O)c2cnn3cccnc23)c(-c2cc(Cl)ccc2OC(F)F)n1` [Example 369, N-[3-[5-chloro-2-(difluoromethoxy)phenyl]-1-[(2S)-2-(methylamino)propyl]-1H-pyrazol-4-yl]pyrazolo[1,5-a]pyrimidine-3-carboxamide], the values for the Ki in assay [1] and in assay [3] were 1.13 nM and 1.25 nM, respectively. Besides, the concentration for a half-maximal effect (EC50) in assay [2] was 0.0093 µM.

On to `C[C@@H](Cn1cc(NC(=O)c2cnn3cccnc23)c(-c2cc(Cl)ccc2OC(F)F)n1)N(C)C` [Example 370, N-[3-[5-chloro-2-(difluoromethoxy)phenyl]-1-[(2S)-2-(dimethylamino)propyl]-1H-pyrazol-4-yl]pyrazolo[1,5-a]pyrimidine-3-carboxamide], for which the inhibitory constant (Ki) in assay [1] and in assay [3] was 1.37 nM in each case. Also, the EC50 in assay [2] worked out at 0.0402 µM.

For the molecule `CC(C)N1CCN(C(=O)Cn2cc(NC(=O)c3cnn4cccnc34)c(-c3cc(Cl)ccc3OC(F)F)n2)CC1` [Example 373, N-[3-[5-chloro-2-(difluoromethoxy)phenyl]-1-[2-oxo-2-[4-(propan-2-yl)piperazin-1-yl]ethyl]-1H-pyrazol-4-yl]pyrazolo[1,5-a]pyrimidine-3-carboxamide], the results for the inhibition constant Ki in assay [1] and in assay [3] were 0.7 nM and 1.24 nM, respectively. Besides, the EC50 in assay [2] is 0.0342 µM.
